Test results taken from the supplement of paper PMC5908809.

Columns and labels:
[1] = tested on: normal NK cells expanded with K562-aAPC; assay: percent inhibition of viability; higher = more inhibition; details: 72 h, IL-2 2.5 ng/mL
Experimental: (§1)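 Drug sensitivity and resistance testing on K562-aAPC-expanded normal NK cells: 5 concentrations (10-fold steps over a 10,000-fold range), 72 h at 37 °C, viability by CellTiter-Glo normalised to DMSO and benzethonium chloride controls; DSS from the fitted curve.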

DERL-7 (IL-2 2.5 ng/mL) [2] = assay: as above; details: 72 h
IMC-1 (IL-2 20 ng/mL) [3] = assay: as above; details: 72 h
KAI3 (IL-2 2.5 ng/mL) [4] = assay: as above; details: 72 h
KHYG-1 (IL-2 2.5 ng/mL) [5] = assay: as above; details: 72 h
NK-92 (IL-2 2.5 ng/mL) [6] = assay: as above; details: 72 h
NK-YS (IL-2 2.5 ng/mL) [7] = assay: as above; details: 72 h
NKL (IL-2 2.5 ng/mL) [8] = assay: as above; details: 72 h
SNK-6 (IL-2 2.5 ng/mL) [9] = assay: as above; details: 72 h
YT (IL-2 2.5 ng/mL) [10] = assay: as above; details: 72 h
[11] = tested on: normal primary NK cells, pool 1 (3 donors) (IL-2 2.5 ng/mL); assay: as above; details: 72 h
[12] = tested on: normal primary NK cells, pool 1 (3 donors), resting (IL-2 0 ng/mL); assay: as above; details: 72 h
[13] = tested on: normal primary NK cells, pool 2 (3 donors) (IL-2 2.5 ng/mL); assay: as above; details: 72 h
[14] = tested on: normal primary NK cells, pool 3 (3 donors) (IL-2 2.5 ng/mL); assay: as above; details: 72 h
[15] = tested on: normal NK cells expanded with K562-aAPC; assay: drug sensitivity score (DSS) (DSS units); higher = more sensitive; extreme values may be limits of the assay; details: 72 h; IL-2 2.5 ng/mL
Experimental: as §1

DERL-7 (IL-2 2.5 ng/mL) [16] = assay: as above; details: 72 h
IMC-1 (IL-2 20 ng/mL) [17] = assay: as above; details: 72 h
KAI3 (IL-2 2.5 ng/mL) [18] = assay: as above; details: 72 h
KHYG-1 (IL-2 2.5 ng/mL) [19] = assay: as above; details: 72 h
NK-92 (IL-2 2.5 ng/mL) [20] = assay: as above; details: 72 h
NK-YS (IL-2 2.5 ng/mL) [21] = assay: as above; details: 72 h
NKL (IL-2 2.5 ng/mL) [22] = assay: as above; details: 72 h
SNK-6 (IL-2 2.5 ng/mL) [23] = assay: as above; details: 72 h
YT (IL-2 2.5 ng/mL) [24] = assay: as above; details: 72 h
[25] = tested on: normal primary NK cells, pool 1 (3 donors) (IL-2 2.5 ng/mL); assay: as above; details: 72 h
[26] = tested on: normal primary NK cells, pool 1 (3 donors), resting (IL-2 0 ng/mL); assay: as above; details: 72 h
[27] = tested on: normal primary NK cells, pool 2 (3 donors) (IL-2 2.5 ng/mL); assay: as above; details: 72 h
[28] = tested on: normal primary NK cells, pool 3 (3 donors) (IL-2 2.5 ng/mL); assay: as above; details: 72 h

COc1ccc(-c2ccc3c(N4CCOC[C@@H]4C)nc(N4CCOC[C@@H]4C)nc3n2)cc1CO [AZD8055] (max concentration tested 10000 nM)
percent inhibition of viability [%]
Details | 1 nM | 10 nM | 100 nM | 1000 nM | 10000 nM
DERL-7 (IL-2 2.5 ng/mL) [2] | 0.54 | 34.1 | 65.8 | 86.8 | 88.3
IMC-1 (IL-2 20 ng/mL) [3] | 1.04 | -9.13 | -36.4 | 1.86 | 16.9
KAI3 (IL-2 2.5 ng/mL) [4] | 16.4 | 25.7 | 50.1 | 58.8 | 60.9
KHYG-1 (IL-2 2.5 ng/mL) [5] | 3.41 | 7.07 | 30.4 | 82.5 | 82.6
NK-92 (IL-2 2.5 ng/mL) [6] | 8.5 | 22.1 | 48.4 | 64.4 | 97.2
NK-YS (IL-2 2.5 ng/mL) [7] | 4.19 | 9.89 | 45.4 | 66.8 | 78.2
NKL (IL-2 2.5 ng/mL) [8] | 9.88 | 42.8 | 61.2 | 63.9 | 61.8
SNK-6 (IL-2 2.5 ng/mL) [9] | -1.89 | 12.4 | 53.8 | 54.5 | 54.5
YT (IL-2 2.5 ng/mL) [10] | 7.4 | 12.9 | 43.8 | 56.6 | 68.3
[1] | 6.73 | 19.9 | 29.3 | 42.1 | 41.3
[11] | -5.65 | 6.16 | 8.42 | 38.2 | 29.2
[12] | -13.5 | -7.65 | -3.85 | 9.37 | -4.87
[13] | -5.63 | 5.36 | 15.5 | 20 | 22.5
[14] | -5.43 | 8.78 | 9.67 | 14.1 | 16.9

Details | drug sensitivity score
DERL-7 (IL-2 2.5 ng/mL) [16] | 27.5
IMC-1 (IL-2 20 ng/mL) [17] | 0.56
KAI3 (IL-2 2.5 ng/mL) [18] | 20.6
KHYG-1 (IL-2 2.5 ng/mL) [19] | 18.6
NK-92 (IL-2 2.5 ng/mL) [20] | 20.7
NK-YS (IL-2 2.5 ng/mL) [21] | 18.9
NKL (IL-2 2.5 ng/mL) [22] | 25.5
SNK-6 (IL-2 2.5 ng/mL) [23] | 19.1
YT (IL-2 2.5 ng/mL) [24] | 17.3
[15] | 12.8
[25] | 8.04
[26] | 0
[27] | 4.67
[28] | 2.13

COc1cc2nccc(Oc3ccc(NC(=O)C4(C(=O)Nc5ccc(F)cc5)CC4)cc3)c2cc1OC [Cabozantinib] (max concentration tested 1000 nM)
percent inhibition of viability [%]
Details | 0.1 nM | 1 nM | 10 nM | 100 nM | 1000 nM
DERL-7 (IL-2 2.5 ng/mL) [2] | 4.09 | 2.17 | 6.31 | -1.21 | 8.67
IMC-1 (IL-2 20 ng/mL) [3] | -7.19 | 0.46 | 1.98 | 6.03 | 8.61
KAI3 (IL-2 2.5 ng/mL) [4] | -1.21 | 2.25 | 0.33 | -5.2 | 0.09
KHYG-1 (IL-2 2.5 ng/mL) [5] | -1.92 | 1.46 | 4.91 | 3.42 | 7.82
NK-92 (IL-2 2.5 ng/mL) [6] | 1.61 | 12.2 | 13.4 | 2.98 | 25.1
NK-YS (IL-2 2.5 ng/mL) [7] | -3.98 | -1.22 | 1.67 | -2.46 | 0.65
NKL (IL-2 2.5 ng/mL) [8] | -19 | -5.16 | -4.38 | -6.13 | 19.2
SNK-6 (IL-2 2.5 ng/mL) [9] | 7.18 | 7.13 | 10.3 | -6.13 | -0.11
YT (IL-2 2.5 ng/mL) [10] | -1.79 | -0.81 | 0.31 | 0.38 | 11.3
[1] | -0.51 | 2.22 | 1.52 | 13.2 | 5.74
[11] | -2.72 | -8.6 | -1.12 | -10.1 | -9.52
[12] | 8.87 | -5.07 | -5.31 | -16.9 | 11.5
[13] | -8.26 | 3.55 | 9.65 | -7.89 | 11.1
[14] | -18.8 | -3.79 | 10.5 | -12.7 | -3.82

Details | drug sensitivity score
DERL-7 (IL-2 2.5 ng/mL) [16] | 0
IMC-1 (IL-2 20 ng/mL) [17] | 0
KAI3 (IL-2 2.5 ng/mL) [18] | 0
KHYG-1 (IL-2 2.5 ng/mL) [19] | 0
NK-92 (IL-2 2.5 ng/mL) [20] | 1.73
NK-YS (IL-2 2.5 ng/mL) [21] | 0
NKL (IL-2 2.5 ng/mL) [22] | 0.33
SNK-6 (IL-2 2.5 ng/mL) [23] | 0
YT (IL-2 2.5 ng/mL) [24] | 0.02
[15] | 0
[25] | 0
[26] | 0.01
[27] | 0
[28] | 0
